Patent US10154976B2, “System and method for delivering protease inhibitors” (Bordoloi Biotech, LLC, priority 2013, dated 2018)

Columns and labels:
plasmin [1] = target: T1, plasmin (Homo sapiens, UniProt P00747); assay: Gravimetric fibrin clot degradation in plasmin medium freshly exchanged every 24 hours;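 further: fibrin clots formed from bovine fibrinogen and thrombin in 96-well plates, weighed each day after plasmin exposure, percent degradation relative to original clot weight, with PBS-only no-plasmin controls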
Description: Also, a gravimetric in vitro method has been developed for a degradation study of a fibrin sealant in a plasmin medium at pH 7.4 and 37° C., where the medium has been freshly exchanged every twenty-four hours. Further investigation into the described degradation of fibrin sealant was undertaken for up to four consecutive days.
A preparation of fibrinogen solution was prepared as described herein: • 1. Prepared a 10 percent solution of fibrinogen by dissolving 1.4 gms of bovine fibrinogen (Sigma F8630) in 14 ml of PBS. The solution was incubated at 37° C. with occasional swirling for 1 hour or till fibrinogen is completely dissolved. • 2. Molecular weight of TA is 157 grams. Three and half millimolar (0.55 mg TA/ml) suspension of 5 percent and 30 percent TA/PLGA were prepared by dispersing 50 mg of 5 percent loaded TA/PLGA and 8.3 mg of 30 percent loaded TA/PLGA in 4.5 ml of 10 percent fibrinogen solution, respectively, Table 7. A 10 percent Fibrinogen solution without TA was used as the negative control.
Next, the fibrin clots in the ninety-six well plate were prepared as follows: • 1. Two and a half mg of Thrombin (600 units/mg) were dissolved in 1 ml of 375 mM CaCl2 solution in PBS (1500 U/ml). Seven microliters (10.5 U) were added to each well of the labeled 96 well plates. • 3. The fibrinogen solutions (with no TA/PLGA that is 0 percent, 5 percent loaded TA/PLGA and 30 percent loaded TA/PLGA) were mixed well and 100 microliter aliquots of 10 percent fibrinogen with or without TA/PLGA were added to the wells containing thrombin solution. […] The plates were incubated at 37° C. temperature for one hour. Final concentration of CaCl2 was 25 mM. The plate was stored at 4° C. overnight after the clot was formed.
Next, plasmin was added to the fibrin clots to begin the enzymatic degradation of the fibrin clots by plasmin as described herein: • 1. A 300× plasmin solution was prepared by dissolving 500 micrograms in 500 microliter PBS. A 2× stock was prepared by diluting 150 times in PBS and adding 100 microliters to each well of the 96 well plate. The final 1× concentration was 3.3 micrograms/ml in the solution. A no-plasmin PBS only control was used for each condition. • 2. Incubation was at 37° C. At every 24 hours, the 96 well plate was centrifuged at 1,000 rpm for five minutes at room temperature. The supernatant plasmin solutions were aspirated out from each well with micropipette leaving the clots at the bottom of the well. • 3. A set of fibrin clots for each condition each day were taken out for measuring their degradation by plasmin by weighing. Fresh 100 microliter of plasmin solution was added to the rest of the clots. Fibrin clots were removed for measuring their weights each day until the clots were completely degraded in the wells.
Data was collected as follows: • 1. The clots were picked up from the well with a pair of forceps and weighed. The percent degradation was calculated by 100−(Average wt of the plasmin treated clot/actual weight of the clot×100). • 2. The clots were placed on a glass slide and photographed.
The clot or sealant was exchanged with fresh plasmin solution of 3.3 micrograms/ml every 24 hours.
The clots were irrigated and exchanged with fresh plasmin solution of 3.3 micrograms/ml every 24 hours.

plasmin [2] = target: T1, plasmin; assay: Gravimetric fibrin clot degradation by plasmin, single 48 hour incubation; assay type: biochemical; parameters: TA delays the conversion of plasminogen to plasmin; purchased Sigma P1867
fibrin clot = assay: Fibrin clot weight in a medium containing no plasmin (PBS only); parameters: species or system Bovine; conditions: 3 percent Ca-TA but without any plasmin; by Day-3 and Day-4
Description: Incubated at 37 C. […] Repeated till the clots completely disappeared.

[3] = Day 0, 3 percent Ca-TA (169.5 mE, 30 mg/ml), no PLGA, plasmin 3.3 μg/ml exchanged every 24 hours, pH 7.4, 37° C.
[4] = Day 1, 3 percent Ca-TA, no PLGA, plasmin 3.3 μg/ml exchanged every 24 hours, pH 7.4, 37° C.
[5] = Day 2, 3 percent Ca-TA, no PLGA, plasmin 3.3 μg/ml exchanged every 24 hours, pH 7.4, 37° C.
[6] = Day 3, 3 percent Ca-TA, no PLGA, plasmin 3.3 μg/ml exchanged every 24 hours, pH 7.4, 37° C.
[7] = Day 4, 3 percent Ca-TA, no PLGA, plasmin 3.3 μg/ml exchanged every 24 hours, pH 7.4, 37° C.
[8] = TA 0.10 mM, plasmin 6.6 μg/ml, 37° C., 48 hours
[9] = TA 0.25 mM, plasmin 6.6 μg/ml, 37° C., 48 hours
[10] = TA 0.50 mM, plasmin 6.6 μg/ml, 37° C., 48 hours
[11] = TA 1.00 mM, plasmin 6.6 μg/ml, 37° C., 48 hours
[12] = Day 0, Aprotinin 1500 KIU without PLGA-2, plasmin 3.3 micrograms/ml fresh every 24 hours, 37 C
[13] = Day 1, Aprotinin 1500 KIU without PLGA-2, plasmin 3.3 micrograms/ml fresh every 24 hours, 37 C
[14] = Day 2, Aprotinin 1500 KIU without PLGA-2, plasmin 3.3 micrograms/ml fresh every 24 hours, 37 C
[15] = Day 3, Aprotinin 1500 KIU without PLGA-2, plasmin 3.3 micrograms/ml fresh every 24 hours, 37 C
[16] = Day 4, Aprotinin 1500 KIU without PLGA-2, plasmin 3.3 micrograms/ml fresh every 24 hours, 37 C

T1 sequence (P00747 97-580 limits assumed): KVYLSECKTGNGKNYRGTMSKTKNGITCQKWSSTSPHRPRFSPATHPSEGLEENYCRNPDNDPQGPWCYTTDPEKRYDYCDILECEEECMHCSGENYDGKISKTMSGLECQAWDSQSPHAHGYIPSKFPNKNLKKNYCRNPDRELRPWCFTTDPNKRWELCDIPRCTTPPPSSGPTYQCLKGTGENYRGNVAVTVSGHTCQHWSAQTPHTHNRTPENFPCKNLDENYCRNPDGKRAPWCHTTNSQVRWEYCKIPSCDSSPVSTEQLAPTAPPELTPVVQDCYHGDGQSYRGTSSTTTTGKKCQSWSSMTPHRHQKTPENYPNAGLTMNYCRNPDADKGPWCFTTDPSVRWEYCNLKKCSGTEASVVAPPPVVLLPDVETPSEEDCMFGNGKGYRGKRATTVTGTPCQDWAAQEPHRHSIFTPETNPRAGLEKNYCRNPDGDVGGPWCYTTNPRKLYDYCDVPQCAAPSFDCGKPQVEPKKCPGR
T1 sequence (P00747 581-810 limits assumed): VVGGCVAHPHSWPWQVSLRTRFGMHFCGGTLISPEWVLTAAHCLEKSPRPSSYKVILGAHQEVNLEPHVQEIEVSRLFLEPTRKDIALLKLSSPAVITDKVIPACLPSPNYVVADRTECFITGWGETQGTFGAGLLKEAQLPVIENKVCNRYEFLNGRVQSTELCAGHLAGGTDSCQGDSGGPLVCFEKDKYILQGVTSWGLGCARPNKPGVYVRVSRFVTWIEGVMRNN

## NCC1CCC(C(=O)[O-])CC1.NCC1CCC(C(=O)[O-])CC1.[Ca+2] (stereo not drawn) [Ca-TA, Calcium Tranexamate]
Plasmin [1]; 3 percent Ca-TA, plasmin solution, on Day-1 and Day-2
  increase in volume or weight of clot, of its original weight: more than 50%
Plasmin [1]; [3]
  Average Weight of fibrin clot: 113.0 mg
  Fibrin clot weight, set A: 113 mg
  Fibrin clot weight, set B: 113 mg
  Fibrin clot weight, set C: 113 mg
  percent degradation: 0%
Plasmin [1]; [4]
  Average Weight of fibrin clot: 179.7 mg
  Fibrin clot weight, set A: 175 mg
  Fibrin clot weight, set B: 160 mg
  Fibrin clot weight, set C: 204 mg
Plasmin [1]; [5]
  Average Weight of fibrin clot: 185.0 mg
  Fibrin clot weight, set A: 172 mg
  Fibrin clot weight, set B: 174 mg
  Fibrin clot weight, set C: 209 mg
Plasmin [1]; [6]
  Average Weight of fibrin clot: 123.3 mg
  Fibrin clot weight, set A: 130 mg
  Fibrin clot weight, set B: 100 mg
  Fibrin clot weight, set C: 140 mg
Plasmin [1]; [7]
  Average Weight of fibrin clot: 0.0 mg
  Fibrin clot weight, set A: 0 mg
  Fibrin clot weight, set B: 0 mg
  Fibrin clot weight, set C: 0 mg
  percent degradation: 100%
Plasmin [2]; same manner as FIG. 5 with Ca-TA (FIG. 12)
  concentration adequate to give a stable clot without any significant degradation: about 0.1 mE
Fibrin clot
  increase in volume or weight of clot: more than 50%

## NC[C@H]1CC[C@H](C(=O)O)CC1 [TA, trans-4-aminomethyl-cyclohexane-1-carboxylic acid]
Plasmin [2]; [8]
  Average Weight of fibrin clot: 95.3 mg
  Fibrin clot weight, set A: 96 mg
  Fibrin clot weight, set B: 99 mg
  Fibrin clot weight, set C: 91 mg
  Percentage Degradation: 11.8%
Plasmin [2]; [9]
  Average Weight of fibrin clot: 98.0 mg
  Fibrin clot weight, set A: 108 mg
  Fibrin clot weight, set B: 104 mg
  Fibrin clot weight, set C: 82 mg
  Percentage Degradation: 9.3%
Plasmin [2]; [10]
  Average Weight of fibrin clot: 105.3 mg
  Fibrin clot weight, set A: 102 mg
  Fibrin clot weight, set B: 106 mg
  Fibrin clot weight, set C: 108 mg
  Percentage Degradation: 2.5%
Plasmin [2]; [11]
  Average Weight of fibrin clot: 104.7 mg
  Fibrin clot weight, set A: 100 mg
  Fibrin clot weight, set B: 108 mg
  Fibrin clot weight, set C: 106 mg
  Percentage Degradation: 3.0%
Plasmin [2]; TA concentration, plasmin 6.6 μg/ml, 37° C., 48 hours
  concentration sufficient for maximum activity (resistance against fibrin clot degradation by plasmin): 0.1 mM
Plasmin [2]; plasmin 6.6 μg/ml, 37° C., 48 hours
  concentration sufficient for maximum activity, stated in ppm: 157 ppm

## Aprotinin
Plasmin [1]; [12]
  Average Weight of fibrin clot: 109.13 mg
  Fibrin clot weight, set A: 109.30 mg
  Fibrin clot weight, set B: 108.50 mg
  Fibrin clot weight, set C: 109.60 mg
  percent degradation: 0.00%
Plasmin [1]; [13]
  Average Weight of fibrin clot: 100.60 mg
  Fibrin clot weight, set A: 100.20 mg
  Fibrin clot weight, set B: 98.10 mg
  Fibrin clot weight, set C: 103.50 mg
  percent degradation: 7.82%
Plasmin [1]; [14]
  Average Weight of fibrin clot: 15.03 mg
  Fibrin clot weight, set A: 14.60 mg
  Fibrin clot weight, set B: 13.80 mg
  Fibrin clot weight, set C: 16.70 mg
  percent degradation: 86.22%
Plasmin [1]; [15]
  Average Weight of fibrin clot: 0.00 mg
  Fibrin clot weight, set A: 0.00 mg
  Fibrin clot weight, set B: 0.00 mg
  Fibrin clot weight, set C: 0.00 mg
  percent degradation: 100.00%
Plasmin [1]; [16]
  Average Weight of fibrin clot: 0.00 mg
  Fibrin clot weight, set A: 0.00 mg
  Fibrin clot weight, set B: 0.00 mg
  Fibrin clot weight, set C: 0.00 mg
  percent degradation: 100.00%
